Values quoted from earlier work as cited in patent US20050065131A1, “2-alkylidene-19-nor-vitamin D derivatives for enhancement of peak bone mass in adolescence” (Pfizer Inc, priority 2003, published 2005).

Tested on: Bone Calcium Mobilization
Settings: at both dose levels (130 and 260 pmol/day), 7 days

## C=C1[C@H](O)CC(=C/C=C2\CCC[C@]3(C)[C@@H]([C@H](C)CCCC(C)(C)O)CC[C@@H]23)C[C@H]1O [2-Methylene-19-Nor-1,25-(OH)2D3, 1α,25-dihydroxy-2-methylene-19-nor-vitamin D3]
  bone calcium mobilization, result in words: extremely strong
